Test results from article PMC8997165, “Transcriptional CDK Inhibitors as Potential Treatment Option for Testicular Germ Cell Tumors” (Cancers, 2022).

What was measured:
Format in all cases: cell-based, human
[1] = tested on: 2102EP cells; assay: XTT cell viability assay, 2102EP
Description: (§1) The following cell lines were used 2102EP, 2102EP-R, NCCIT, NCCIT-R (all ECs), TCam2 (seminoma cell line), FS1 (Sertoli cell line) and MPAF (human adult fibroblast cell line). Cells were cultivated as described previously. In brief, the ECs were cultivated in Dulbecco’s modified Eagle’s medium (DMEM) supplemented with 10% fetal bovine serum (FBS), 1% penicillin–streptomycin and […] L-glutamine. FS1 cells were grown in DMEM supplemented with 20% FSB, 1% penicillin–streptomycin, 200 mM L-glutamine and 1% nonessential amino acids (NEAA). MPAF cells were cultured in DMEM supplemented with 10% FBS, 1% penicillin–streptomycin, 200 mM L-glutamine and 1% NEAA. TCam2 cell line was cultured in RPMI medium supplemented with 10% FBS, 1% penicillin–streptomycin and […] L-glutamine. All cell lines were kept at 37 °C and 7.5% CO2. 2102EP and NCCIT were a kind gift from Prof. Dr. L. Looijenga (Princess Máxima Center for Pediatric Oncology, Utrecht, The Netherlands). Cisplatin-resistant lines 2102EP-R and NCCIT-R were obtained from PD Dr. F. Honecker (Breast and Tumor Center, ZeTup Silberturm, St. Gallen, Switzerland). MPAFs were a kind gift from […] (Bonn University, Institute of Reconstructive Neurobiology, Bonn, Germany). FS1 cells were obtained from Prof. Dr. V. Schumacher (Boston Children’s Hospital, Department of Urology; Harvard Medical School, Department of Surgery, Boston, MA, USA).
(§2) The assay was performed based on the reduction in XTT tetrazolium salt as described previously. In summary, 3000 cells were seeded per well of a 96-well cell culture plate in 100 µL of cell culture medium. The next day, cells were treated with CDK inhibitor or CDK degrader for 24/48/72 h. For XTT assay, 0.6 mg/mL XTT sodium salt was dissolved in cell culture medium (DMEM or RPMI) and supplemented with 25 µM electron carrier N-methyl dibenzopyrazine methyl sulfate (PMS). A total of 50 µL of XTT/PMS was added to each well and incubated for 4 h at 37 °C, 7.5% CO2. For readout, absorption was measured at 450 nm and 650 nm. Specific XTT signal (450 nm) was subtracted by nonspecific absorbance (650) and blank (cell culture medium). Averages of technical triplicates were calculated, and treated sample was referenced to the corresponding dimethyl sufoxide (DMSO) control. Experiment was repeated several times to obtain biological replicates. For statistical analysis, two-tailed Student’s t-test was applied.

[2] = tested on: NCCIT cells; assay: XTT cell viability assay, NCCIT
Description: as §1, §2

[3] = tested on: TCam2 cells; assay: XTT cell viability assay, TCam2
Description: as §1, §2

[4] = tested on: FS1 cells; assay: XTT cell viability assay, FS1 Sertoli control
Description: as §1, §2

[5] = tested on: MPAF cells; assay: XTT cell viability assay, MPAF fibroblast control; settings: for IC50: XTT viability
Description: as §1, §2

[6] = tested on: TGCT cell lines; assay: XTT cell viability assay, summarised over TGCT tumor cell lines; settings: Homo sapiens; 72 h, tumor (TGCT) cell lines, XTT viability; read-out: IC50 at 72 h, range over tumor cell lines
Description: as §1, §2

[7] = tested on: 2102EP-R cells; assay: XTT cell viability assay, 2102EP-R (cisplatin-resistant)
Description: as §1, §2

[8] = tested on: NCCIT-R cells; assay: XTT cell viability assay, NCCIT-R (cisplatin-resistant)
Description: as §1, §2

[9] = tested on: TGCT and control cell lines; assay: 7AAD/AnnexinV FACS apoptosis analysis, TGCT and control cell lines; settings: 100 nM, 24 and 48 h
Description: (§3) Cells were seeded in 6-well cell culture plates (1.5 × 10^5 cells/well). […] For cell cycle analysis, cells were harvested after 20 h of treatment and resuspended in PBS. Ice-cold methanol was added dropwise while shaking until 70% methanol v/v was reached. Cells were incubated for 2 h at 4 °C and subsequently washed twice with cold PBS. Staining (2 µg/mL Hoechst-33342, 50 µg/mL RNaseA in PBS) was performed for 30 min at 37 °C. The cell cycle distribution was measured in an FACS Canto (BD BioSciences, Heidelberg, Germany) and analyzed using FlowJo™ v10.8 Software (BD BioSciences, Heidelberg, Germany). For apoptosis analysis, PE AnnexinV Apoptosis Detection Kit with 7-AAD (BioLegend, San Diego, CA USA) was used according to the manufacturer’s manual. Measurement was performed in an FACS Canto while analysis was performed in the corresponding BD FACSDiva software^TM (BD BioSciences, Heidelberg, Germany). Two-tailed Student’s t-test was applied for calculation of significance.

[10] = tested on: TGCT and control cell lines; assay: Hoechst-FACS cell cycle analysis; settings: 20 h; NVP2 and SY0351 10 nM, YKL-5-124 and THZ531 100 nM
Description: as §3

## CC(C)(C)c1cnc(CSc2cnc(NC(=O)C3CCN(CC(=O)NCCOCCOCCOCCNc4cccc5c4C(=O)N(C4CCC(=O)NC4=O)C5=O)CC3)s2)o1 (stereo not drawn) [THAL-SNS-032]
[1]; Homo sapiens, 24 h
  IC50: 164 nM
[1]; Homo sapiens, 48 h
  IC50: 39.5 nM
[1]; Homo sapiens, 72 h
  IC50: 34.8 nM
[2]; Homo sapiens, 24 h
  IC50: 149 nM
[2]; Homo sapiens, 48 h
  IC50: 50.6 nM
[2]; Homo sapiens, 72 h
  IC50: 30.1 nM
[3]; Homo sapiens, TCam2, 24 h
  IC50: 140 nM
[3]; Homo sapiens, TCam2, 48 h
  IC50: 76.7 nM
[3]; Homo sapiens, TCam2, 72 h
  IC50: 39.6 nM
[4]; Homo sapiens, FS1, 24 h
  IC50: > 1000 nM
[4]; Homo sapiens, FS1, 48 h
  IC50: > 1000 nM
[4]; Homo sapiens, FS1, 72 h
  IC50: > 1000 nM
[5]; 1 and 10 nM
  viability (XTT): not affected
[5]; 100 and 500 nM
  viability (XTT): minimal decrease in viability
[5]; Homo sapiens, Fibroblast, 24 h
  IC50: > 1000 nM
[5]; Homo sapiens, Fibroblast, 48 h
  IC50: > 1000 nM
[5]; Homo sapiens, Fibroblast, 72 h
  IC50: > 1000 nM
[6]
  IC50: 30 to 40 nM

## CN(C)C/C=C/C(=O)Nc1ccc(C(=O)Nc2cccc(Nc3ncc(Cl)c(-c4c[nH]c5ccccc45)n3)c2)cc1 [THZ1]
[1]; 24 h
  IC50: 95.6 nM
[1]; 48 h
  IC50: 26.3 nM
[1]; 72 h
  IC50: 6.7 nM
[7]; 24 h
  IC50: 235 nM
[7]; 48 h
  IC50: 16.3 nM
[7]; 72 h
  IC50: 9.9 nM
[2]; 24 h
  IC50: > 1000 nM
[2]; 48 h
  IC50: 92.9 nM
[2]; 72 h
  IC50: 9.3 nM
[8]; 24 h
  IC50: 929 nM
[8]; 48 h
  IC50: 145 nM
[8]; 72 h
  IC50: 16.2 nM
[3]; TCam2, 24 h
  IC50: > 1000 nM
[3]; TCam2, 48 h
  IC50: > 1000 nM
[3]; TCam2, 72 h
  IC50: 847 nM
[4]; FS1, 24 h
  IC50: > 1000 nM
[4]; FS1, 48 h
  IC50: > 1000 nM
[4]; FS1, 72 h
  IC50: > 1000 nM
[5]; 24 h
  IC50: > 1000 nM
[5]; 48 h
  IC50: > 1000 nM
[5]; 72 h
  IC50: > 1000 nM

## CN(C)C/C=C/C(=O)Nc1ccc(C(=O)N2CCC[C@@H](Nc3ncc(Cl)c(-c4c[nH]c5ccccc45)n3)C2)cc1 [THZ531]
[1]; Homo sapiens, 24 h
  IC50: > 1000 nM
[1]; Homo sapiens, 48 h
  IC50: 180 nM
[1]; Homo sapiens, 72 h
  IC50: 74.5 nM
[7]; Homo sapiens, 24 h
  IC50: > 1000 nM
[7]; Homo sapiens, 48 h
  IC50: 228 nM
[7]; Homo sapiens, 72 h
  IC50: 164 nM
[2]; Homo sapiens, 24 h
  IC50: > 1000 nM
[2]; Homo sapiens, 48 h
  IC50: > 1000 nM
[2]; Homo sapiens, 72 h
  IC50: 96.6 nM
[8]; Homo sapiens, 24 h
  IC50: > 1000 nM
[8]; Homo sapiens, 48 h
  IC50: > 1000 nM
[8]; Homo sapiens, 72 h
  IC50: 137 nM
[3]; Homo sapiens, TCam2, 24 h
  IC50: > 1000 nM
[3]; Homo sapiens, TCam2, 48 h
  IC50: > 1000 nM
[3]; Homo sapiens, TCam2, 72 h
  IC50: > 1000 nM
[4]; Homo sapiens, FS1, 24 h
  IC50: > 1000 nM
[4]; Homo sapiens, FS1, 48 h
  IC50: > 1000 nM
[4]; Homo sapiens, FS1, 72 h
  IC50: > 1000 nM
[5]; Homo sapiens, Fibroblast, 24 h
  IC50: > 1000 nM
[5]; Homo sapiens, Fibroblast, 48 h
  IC50: > 1000 nM
[5]; Homo sapiens, Fibroblast, 72 h
  IC50: > 1000 nM
[9]; tumor cell lines
  apoptosis induction: moderate increase in apoptosis induction
[10]
  effect on cell cycle: only mild effects on the cell cycle

## C=CC(=O)Nc1ccc(C(=O)Nc2[nH]nc3c2CN(C(=O)N[C@H](CN(C)C)c2ccccc2)C3(C)C)cc1 [YKL-5-124]
[1]; 24 h
  IC50: 318 nM
[1]; 48 h
  IC50: 43.6 nM
[1]; 72 h
  IC50: 17.2 nM
[7]; 24 h
  IC50: > 1000 nM
[7]; 48 h
  IC50: 30.5 nM
[7]; 72 h
  IC50: 23.6 nM
[2]; 24 h
  IC50: > 1000 nM
[2]; 48 h
  IC50: > 1000 nM
[2]; 72 h
  IC50: 121 nM
[8]; 24 h
  IC50: > 1000 nM
[8]; 48 h
  IC50: > 1000 nM
[8]; 72 h
  IC50: 178 nM
[3]; TCam2, 24 h
  IC50: > 1000 nM
[3]; TCam2, 48 h
  IC50: > 1000 nM
[3]; TCam2, 72 h
  IC50: 263 nM
[4]; FS1, 24 h
  IC50: > 1000 nM
[4]; FS1, 48 h
  IC50: > 1000 nM
[4]; FS1, 72 h
  IC50: 95.2 nM
[5]; 24 h
  IC50: > 1000 nM
[5]; 48 h
  IC50: > 1000 nM
[5]; 72 h
  IC50: > 1000 nM
[5]; highest concentration tested (500 nM)
  viability (XTT): unaffected
[9]
  apoptosis, fold change over DMSO control: up to 2.8 fold
[9]; FS1 and MPAF cells
  apoptosis, treatment vs control: almost no difference between treatment and control
[10]
  effect on cell cycle: only mild effects on the cell cycle
